Calls of active or inactive are those of the source. No cut-off for these calls is given here.
Assays:
[1] = Anticoagulant activity in human […] assessed as concentration required to double activated partial […] time; type: functional
[2] = Inhibition of trypsin
Prothrombin = Prothrombin (Homo sapiens, UniProt P00734); experiment: Inhibition of thrombin
[3] = Fraction unbound in human plasma; type: ADME, cell-free
Rattus norvegicus = experiment: Anticoagulant activity in iv dosed ferric chloride-induced thrombosis rat model assessed as protection against thrombotic occlusion; type: functional, organism-based
[4] = Cmax in rat at 10 mg/kg, po; type: ADME, organism-based; parameters: dose 10 mg/kg, route oral; settings: in vivo
[5] = Cmax in dog at 1 mg/kg, po; type: ADME, organism-based, Canis lupus familiaris; parameters: dose 1 mg/kg, route oral; settings: in vivo
[6] = Half life in rat at 10 mg/kg, po; type: ADME, organism-based; parameters: dose 10 mg/kg, route oral; settings: in vivo
[7] = Half life in dog at 1 mg/kg, po; type: ADME, organism-based, Canis lupus familiaris; parameters: dose 1 mg/kg, route oral; settings: in vivo

Compound	Ki [2] [µM]	Ki (Prothrombin) [nM]	fraction unbound [3]	Cmax [4] [nM]	Cmax [5] [nM]	half-life [6] [h]	half-life [7] [h]	Activity [1] [µM]	Activity (Rattus norvegicus)
O=C(Cn1c(Cl)cnc(NCCc2cccc[n+]2[O-])c1=O)NCc1cc(Cl)ccc1OCC(F)(F)F	17	0.31	–	–	–	–	–	0.6	–
NC(C(=O)N1CCC[C@H]1C(=O)NCc1cc(Cl)ccc1OCC(=O)NC1CC1)C1CCCCC1 (single isomer, unassigned)	–	–	0.12	–	–	–	–	0.42	–
COc1ccc(C#N)c(CNC(=O)Cn2c(C)cnc(NCCC3CCCCN3)c2=O)c1 (racemic)	136	1.8	–	–	–	–	–	0.27	Active
Cc1cnc(NCCc2ccccn2)c(=O)n1CC(=O)NCc1cc(Cl)ccc1OCC(=O)NC1CCCNC1 (centres undefined)	–	0.125	0.12	–	–	–	–	0.24	Active
Cc1cnc(NCCc2ccccn2)c(=O)n1CC(=O)NCc1cc(Cl)ccc1OCC(F)(F)F	32	0.5	–	1060	3240	1.95	1.3	0.79	–
COc1ccc(C#N)c(CNC(=O)Cn2c(Cl)cnc(NCCc3cccc[n+]3[O-])c2=O)c1	278	1.1	–	–	–	–	–	0.41	–
COc1ccc(Cl)cc1CNC(=O)Cn1c(C)cnc(NCCC2CCCCN2)c1=O (racemic)	58.9	4.8	–	–	–	–	–	0.65	Active
Cc1ccc(Cl)cc1CNC(=O)Cn1c(C)cnc(NCCC2CCCCN2)c1=O (racemic)	38	2.3	–	–	–	–	–	0.44	Active
Cc1cnc(NCCc2ccccn2)c(=O)n1CC(=O)NCc1cccc(Cl)c1	37	3	0.06	2980	2820	1	0.867	1.01	–
O=C(Cn1c(Cl)cnc(NCCc2cccc[n+]2[O-])c1=O)NCc1cc(Cl)ccc1Cl	138	0.76	–	–	–	–	–	0.65	–
COc1ccc(C#N)c(CNC(=O)Cn2c(Cl)cnc(NCCc3ccccn3)c2=O)c1	> 100	1.5	–	–	–	–	–	0.83	–
COc1ccc(Cl)cc1CNC(=O)Cn1c(Cl)cnc(NCCc2cccc[n+]2[O-])c1=O	64	1.8	–	–	–	–	–	0.67	–
Cc1cnc(NCCc2ccccn2)c(=O)n1CC(=O)NCc1cc(Cl)ccc1OCC(=O)NC1CC1	–	0.015	0.01	–	–	–	–	0.45	–
Cc1ccc(Cl)cc1CNC(=O)Cn1c(Cl)cnc(NCCc2cccc[n+]2[O-])c1=O	94	1.1	–	–	–	–	–	0.69	–

Now from value to compound, other results behind:

Ki [2] [µM]	Ki (Prothrombin) [nM]	fraction unbound [3]	Cmax [4] [nM]	Cmax [5] [nM]	half-life [6] [h]	half-life [7] [h]	Compound	Activity [1] [µM]	Activity (Rattus norvegicus)
> 50	1.1	–	1290	2520	3.67	1.18	Cc1ccc(Cl)cc1CNC(=O)Cn1c(C)cnc(NCCc2ccccn2)c1=O	0.87	–
> 1000	1.6	–	2280	2260	2.08	1.47	COc1ccc(C#N)c(CNC(=O)Cn2c(C)cnc(NCCc3ccccn3)c2=O)c1	0.72	–
161	2	–	570	1480	3.73	1	COc1ccc(Cl)cc1CNC(=O)Cn1c(C)cnc(NCCc2ccccn2)c1=O	1.05	–
902	8	–	–	–	–	–	COc1ccc(C)cc1CNC(=O)Cn1c(C)cnc(NCCc2ccccn2)c1=O	2.9	–
102	1.3	–	–	2300	–	0.85	Cc1ccc(C#N)c(CNC(=O)Cn2c(C)cnc(NCCc3ccccn3)c2=O)c1	0.56	–
52	0.75	–	–	–	–	–	Cc1cnc(NCCc2ccccn2)c(=O)n1CC(=O)NCc1cc(Cl)ccc1Cl	0.98	–
91	1.5	–	–	–	–	–	Cc1ccc(OCC(F)(F)F)c(CNC(=O)Cn2c(C)cnc(NCCc3ccccn3)c2=O)c1	0.89	–

Reference: ChEMBL document CHEMBL1681657, “P3 optimization of functional potency, in vivo efficacy and oral bioavailability in 3-aminopyrazinone thrombin inhibitors bearing non-charged groups at the P1 position” (Bioorg Med Chem Lett, 2011)
